For assay [1], the target named is type-1 Sigma receptors (Homo sapiens, UniProt Q99720). As to conditions: type-1 Sigma receptor, result in words; cited from earlier work.
Assay [2] concerns the target type-2 Sigma receptors (Homo sapiens, UniProt Q5BJF2). As to conditions: type-2 Sigma receptor, result in words; cited from earlier work.
The subject of assay [3] is mouse Sigma-1 receptor. Nature of the assay: specific binding test to the [3H]-pentazocine ligand, brain membrane fraction. As to conditions: brain membranes of homozygous mutant (-/-) mice; 37° C., 130-170 minutes.
Experimental: Fourthly, the activity (function) of the mouse Sigma-1 receptor was evaluated by a specific binding test to the [^3H]-pentazocine ligand. Briefly, the brains of mutant (−/−), heterozygous (+/−) and wild (+/+) mice were homogenised and the homogenisations ere centrifuged several times at different speeds to obtain the membrane fraction. Then samples of the membrane fraction obtained were incubated with the [^3H]-pentazocine radioligand in optimal binding conditions for this receptor (37° C., for 130-170 minutes), filtrating the samples, washing them and reading the radioactivity count present in the filtrate (see DeHaven-Hudkins D. L., Fleissner L. C., Ford-Rice, F. Y. (1992) Characterization of the binding of [3H]-Pentazocine to sigma recognition sites in guinea pigs brain. European Journal of Pharmacology 227:371-378, hereinafter DeHaven-Hudkins).
Assay [4] concerns the target Sigma-1 receptor (Mus musculus, UniProt O55242). The conditions noted are these: in vivo. As for the experimental part: Fifthly, the function of the Sigma-1 receptor was evaluated according to known behavioral paradigms and protocols.

Sequence of type-2 Sigma receptors (Q5BJF2 whole entry): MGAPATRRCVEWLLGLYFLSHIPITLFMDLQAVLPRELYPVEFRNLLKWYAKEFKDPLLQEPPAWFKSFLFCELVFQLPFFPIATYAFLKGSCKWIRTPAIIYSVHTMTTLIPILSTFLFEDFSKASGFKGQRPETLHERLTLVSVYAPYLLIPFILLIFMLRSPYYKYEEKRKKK
Sequence of type-1 Sigma receptors (Q99720 whole entry): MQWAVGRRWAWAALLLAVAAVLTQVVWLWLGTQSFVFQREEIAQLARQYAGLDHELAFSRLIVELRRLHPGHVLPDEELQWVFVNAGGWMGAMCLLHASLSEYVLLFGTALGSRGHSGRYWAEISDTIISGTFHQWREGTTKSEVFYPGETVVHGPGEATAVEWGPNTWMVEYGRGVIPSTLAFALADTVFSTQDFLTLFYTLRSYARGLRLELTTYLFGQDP
Sequence of Sigma-1 receptor (O55242 whole entry): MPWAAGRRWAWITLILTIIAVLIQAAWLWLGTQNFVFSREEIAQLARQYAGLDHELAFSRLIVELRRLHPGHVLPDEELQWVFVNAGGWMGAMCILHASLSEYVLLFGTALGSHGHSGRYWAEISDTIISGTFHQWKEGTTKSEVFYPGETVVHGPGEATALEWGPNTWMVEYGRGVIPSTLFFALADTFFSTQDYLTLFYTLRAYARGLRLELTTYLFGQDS

Regarding `CC(C)=CCN1CCC2(C)c3cc(O)ccc3CC1C2C` (single isomer, unassigned; (+)) [(+)-pentazocine], the affinity result in assay [1] was “high affinity”; in assay [2], “low affinity”.

For `[3H]c1cc2c(c([3H])c1O)[C@@]1(C)CCN(CC=C(C)C)[C@@H](C2)[C@H]1C` [[^3H]-pentazocine], the “specific binding of radioligand (activity/function of receptor)” value in assay [3] is “lack of activity (function)”.

As to `O=C(CCCN1CCC(O)(c2ccc(Cl)cc2)CC1)c1ccc(F)cc1` [haloperidol], the affinity entry in assay [2] is reported as “high to moderate affinity”.

For `C[C@@H]1CN(CCCn2c3ccccc3c3ccccc32)C[C@H](C)N1` [rimcazole], the affinity entry in assay [1] is on record as “high affinity”.

With (+)-SKF10047, in assay [2], the affinity result is given as “low affinity”.

Turning to N-allylnormetazocine [SKF-10047], the affinity result in assay [1] is reported as “high affinity”. In addition, the “hyperactivity (hypermotility) response” value in assay [4] is reported as “Statistically significant differences have only been observed with wild mice”.

These data come from patent US8003847B2, “Non-human mutant mammals deficient in Sigma receptors and their applications” (Laboratorios Del Dr. Esteve, S.A., priority 2002, dated 2011).
